Reference: the supplement of paper PMC11061612

How the values were obtained:
[1] = system: JHH-6 (Hepatocellular Carcinoma); test: Bliss excess, mean over the matrix (fraction); higher = more synergy
Summary of the method: (§1)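 After 24 hours at 37°C and 5% CO2 in 1536-well plates, cells in DMEM/F12 or RPMI plus 10% FBS received two-drug dose matrices for 72 hours. Viability came from CellTiter-Glo 2.0 luminescence and was scaled as inhibition, anchored at 0 by vehicle wells and at 1 by blank wells. Combination Emax is taken as the second-highest inhibition in the matrix, and Bliss excess as the observed combination effect less EA + EB − EA·EB, with EA and EB the single-agent effects.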

[2] = system: BICR78 (Oral Cavity Carcinoma); test: as above
Summary of the method: as §1

[3] = system: HCT-116 (Colorectal Carcinoma); test: as above
Summary of the method: as §1

[4] = system: SK-LMS-1 (Other Solid Carcinomas); test: as above
Summary of the method: as §1

[5] = system: MES-SA (Other Solid Carcinomas); test: as above
Summary of the method: as §1

[6] = system: WSU-DLCL2 (B-Cell Non-Hodgkin's Lymphoma); test: combination Emax (second highest fraction inhibited in the dose matrix, 72 h); higher = more inhibition; extreme values may be limits of the assay
Summary of the method: as §1

[7] = system: P31-FUJ (Acute Myeloid Leukemia); test: as above
Summary of the method: as §1

[8] = system: BICR78 (Oral Cavity Carcinoma); test: as above
Summary of the method: as §1

EW-22 (Ewing's Sarcoma) = test: as above
Summary of the method: as §1

[9] = system: 647-V (Bladder Carcinoma); test: as above
Summary of the method: as §1

HCC38 (Breast Carcinoma) = test: as above
Summary of the method: as §1

[10] = system: SNG-M (Endometrial Carcinoma); test: as above
Summary of the method: as §1

[11] = system: TYK-nu (Ovarian Carcinoma); test: as above
Summary of the method: as §1

[12] = system: HLE (Hepatocellular Carcinoma); test: as above
Summary of the method: as §1

[13] = system: DOK (Oral Cavity Carcinoma); test: as above
Summary of the method: as §1

[14] = system: SK-UT-1 (Other Solid Carcinomas); test: as above
Summary of the method: as §1

[15] = system: MES-SA (Other Solid Carcinomas); test: as above
Summary of the method: as §1

[16] = system: YT (Other Blood Carcinomas); test: as above
Summary of the method: as §1

[17] = system: ETK-1 (Biliary Tract Carcinoma); test: as above
Summary of the method: as §1
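For Bliss excess, mean over the matrix in this document: after 72 h of two-drug dosing.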

SMILES	Bliss excess [1]	Bliss excess [2]	Bliss excess [3]	Bliss excess [4]	Bliss excess [5]	combination Emax [6]	combination Emax [7]	combination Emax [8]	combination Emax (EW-22 (Ewing's Sarcoma))	combination Emax [9]	combination Emax (HCC38 (Breast Carcinoma))	combination Emax [10]	combination Emax [11]	combination Emax [12]	combination Emax [13]	combination Emax [14]	combination Emax [15]	combination Emax [16]	combination Emax [17]
CN(C)CCCOc1ccc(-c2ccc3ncc4c(c3c2)n(C2CCOCC2)c(=O)n4C)cn1 [AZD0156] + O=C(c1cc(Cc2n[nH]c(=O)c3ccccc23)ccc1F)N1CCN(C(=O)C2CC2)CC1 [Olaparib] (first compound max 3 µM, partner max 3 µM)	-0.019	-0.0507	0.129	0.0373	0.142	0.89	0.368	0.129	0.872	0.257	0.266	0.0957	0.354	0.335	0.361	0.257	0.353	0.212	0.329
CC(=O)c1c(C)c2cnc(Nc3ccc(N4CCNCC4)cn3)nc2n(C2CCCC2)c1=O [Palbociclib] + Cc1c2c(nn1C)CSCc1cc(n(C)n1)CSc1cc(c3ccccc3c1)OCCCc1c(C(=O)O)n(C)c3c-2c(Cl)ccc13 [AZD5991] (first compound max 10 µM, 7x7, partner max 1 µM)	-0.0212	-0.0375	-0.0075	-0.0081	-0.05	0.991	0.907	0.232	0.515	0.117	0.192	0.485	0.405	0.211	0.311	0.223	0.513	1	0.303
CS(=O)(=O)CCNCc1ccc(-c2ccc3ncnc(Nc4ccc(OCc5cccc(F)c5)c(Cl)c4)c3c2)o1 [Lapatinib] + C[C@@H](Oc1cc(-c2cnn(C3CCNCC3)c2)cnc1N)c1c(Cl)ccc(F)c1Cl [Crizotinib] (first compound max 10 µM, 7x7, partner max 10 µM)	-0.0262	0.0073	-0.0748	-0.0611	-0.0302	0.924	0.957	0.918	0.887	0.906	0.556	0.955	0.719	0.537	0.979	0.511	0.813	0.939	0.958
CC(=O)c1c(C)c2cnc(Nc3ccc(N4CCNCC4)cn3)nc2n(C2CCCC2)c1=O [Palbociclib] + Cn1cnc2c(F)c(Nc3ccc(Br)cc3Cl)c(C(=O)NOCCO)cc21 [Selumetinib] (first compound max 10 µM, 7x7, partner max 10 µM)	0.0291	0.0133	0.0697	0.0539	-0.0009	0.834	0.475	0.315	0.25	0.206	0.139	0.296	0.584	0.143	0.5	0.137	0.38	0.606	0.347
C[C@@H](c1ccc2nccn2c1)n1nnc2ncc(-c3cnn(C)c3)nc21 [Savolitinib] + CC1(C)CCC(CN2CCN(c3ccc(C(=O)NS(=O)(=O)c4ccc(NCC5CCOCC5)c([N+](=O)[O-])c4)c(Oc4cnc5[nH]ccc5c4)c3)CC2)=C(c2ccc(Cl)cc2)C1 [Venetoclax] (first compound max 1 µM, 7x7, partner max 1 µM)	-0.0918	-0.0779	-0.0357	0.0121	-0.0736	0.304	0.372	0.201	0.173	0.0716	0.158	0.246	0.168	0.155	0.116	0.149	0.0576	0.336	0.0864
Cn1cnc2c(F)c(Nc3ccc(Br)cc3Cl)c(C(=O)NOCCO)cc21 [Selumetinib] + CC(C)n1c(=O)n(C)c2cnc3cc(F)c(-c4ccc(OCCCN5CCCCC5)nc4)cc3c21 [AZD1390] (first compound max 10 µM, 7x7, partner max 0.3 µM)	-0.0769	0.0116	-0.0129	-0.0429	-0.0335	0.14	0.555	0.3	0.128	0.154	0.116	0.187	0.548	0.122	0.416	0.153	0.115	0.16	0.122
CC(=O)c1c(C)c2cnc(Nc3ccc(N4CCNCC4)cn3)nc2n(C2CCCC2)c1=O [Palbociclib] + CC1(C)CCC(CN2CCN(c3ccc(C(=O)NS(=O)(=O)c4ccc(NCC5CCOCC5)c([N+](=O)[O-])c4)c(Oc4cnc5[nH]ccc5c4)c3)CC2)=C(c2ccc(Cl)cc2)C1 [Venetoclax] (first compound max 10 µM, 7x7, partner max 1 µM)	-0.0461	-0.0611	-0.0285	-0.0316	0.0594	0.98	0.364	0.092	0.347	0.098	0.0554	0.424	0.401	0.0796	0.126	0.108	0.361	0.504	0.281
Cn1cnc2c(F)c(Nc3ccc(Br)cc3Cl)c(C(=O)NOCCO)cc21 [Selumetinib] + CCN(CCO)CCCOc1ccc2c(Nc3cc(CC(=O)Nc4cccc(F)c4)[nH]n3)ncnc2c1 [AZD2811] (first compound max 10 µM, 7x7, partner max 1 µM)	-0.0305	0.0275	0.0289	-0.0047	-0.0248	0.127	0.951	0.322	0.695	0.394	0.133	0.261	0.554	0.235	0.633	0.328	0.405	0.229	0.158
COc1nnc2ccc(N3CCC(c4ccc(OCCN5CCN(C)C(=O)[C@H]5C)cc4)CC3)nn12 [AZD5153] + Cn1cnc2c(F)c(Nc3ccc(Br)cc3Cl)c(C(=O)NOCCO)cc21 [Selumetinib] (first compound max 1 µM, 7x7, partner max 10 µM)	0.0053	-0.0454	-0.029	0.0383	0.0199	0.963	0.985	0.548	0.517	0.61	0.342	0.632	0.755	0.341	0.648	0.486	0.478	0.693	0.463
NC1(C(=O)N[C@@H](CCO)c2ccc(Cl)cc2)CCN(c2ncnc3[nH]ccc23)CC1 [Capivasertib] + CCN(CCO)CCCOc1ccc2c(Nc3cc(CC(=O)Nc4cccc(F)c4)[nH]n3)ncnc2c1 [AZD2811] (first compound max 10 µM, 7x7, partner max 1 µM)	-0.0301	-0.0092	0.0513	-0.0055	0.0165	1	0.952	0.392	0.78	0.309	0.359	0.363	0.357	0.33	0.592	0.522	0.756	0.456	0.381
COc1nnc2ccc(N3CCC(c4ccc(OCCN5CCN(C)C(=O)[C@H]5C)cc4)CC3)nn12 [AZD5153] + C=CCn1c(=O)c2cnc(Nc3ccc(N4CCN(C)CC4)cc3)nc2n1-c1cccc(C(C)(C)O)n1 [AZD1775] (first compound max 1 µM, partner max 1 µM)	-0.048	-0.0302	-0.0367	-0.0353	-0.0334	0.996	0.97	0.482	0.781	0.637	0.433	0.642	0.772	0.61	0.658	0.787	0.685	0.917	0.576
NC1(C(=O)N[C@@H](CCO)c2ccc(Cl)cc2)CCN(c2ncnc3[nH]ccc23)CC1 [Capivasertib] + COc1nnc2ccc(N3CCC(c4ccc(OCCN5CCN(C)C(=O)[C@H]5C)cc4)CC3)nn12 [AZD5153] (first compound max 10 µM, 7x7, partner max 1 µM)	-0.0365	0.0135	0.0331	0.0014	0.0276	1	1	0.636	0.834	0.502	0.461	0.749	0.632	0.389	0.768	0.658	0.621	0.792	0.503
C[C@@H](c1ccc2nccn2c1)n1nnc2ncc(-c3cnn(C)c3)nc21 [Savolitinib] + Cc1c2c(nn1C)CSCc1cc(n(C)n1)CSc1cc(c3ccccc3c1)OCCCc1c(C(=O)O)n(C)c3c-2c(Cl)ccc13 [AZD5991] (first compound max 1 µM, 7x7, partner max 1 µM)	-0.0727	-0.0214	-0.0593	0.0027	-0.0465	0.985	0.94	0.231	0.271	0.233	0.207	0.32	0.295	0.164	0.372	0.174	0.191	1	0.141
NC1(C(=O)N[C@@H](CCO)c2ccc(Cl)cc2)CCN(c2ncnc3[nH]ccc23)CC1 [Capivasertib] + CC(=O)c1c(C)c2cnc(Nc3ccc(N4CCNCC4)cn3)nc2n(C2CCCC2)c1=O [Palbociclib] (first compound max 10 µM, 7x7, partner max 10 µM)	-0.0503	-0.0093	0.01	0.0514	-0.0017	1	0.571	0.424	0.575	0.277	0.209	0.501	0.505	0.164	0.596	0.458	0.607	0.68	0.419
